For this assay, the target named is T1, MMP-9 enzyme (Homo sapiens, UniProt P14780).
T1 construct: purchased EnzoLife Sciences Inc. (Farmingdale, New York, NY, USA)
The assay is described as follows: MMP-9 colorimetric inhibition assay. The format is biochemical. An excerpt:
As described in our previous study,[36] the method was applied in exactly the same manner. EnzoLife Sciences Inc. provided MMP-9 colorimetric kits (Farmingdale, New York, NY, USA). The MMP Colorimetric Drug Discovery Kits are a comprehensive test technique that uses a thiopeptide (Ac-PLG-[2-mercapto-4-methyl-pentanoyl]-LG-OC2H5) as a chromogenic substrate to screen MMP inhibitors. Using a microplate reader (BioTek, PowerWave, Gen5 software, Winooski, VT, USA) at room temperature, the UV absorbance was measured at 412 nm. NNGH was employed as an inhibitor of control.

The structures appear in SMILES notation.

T1 sequence (P14780 107-444 limits assumed): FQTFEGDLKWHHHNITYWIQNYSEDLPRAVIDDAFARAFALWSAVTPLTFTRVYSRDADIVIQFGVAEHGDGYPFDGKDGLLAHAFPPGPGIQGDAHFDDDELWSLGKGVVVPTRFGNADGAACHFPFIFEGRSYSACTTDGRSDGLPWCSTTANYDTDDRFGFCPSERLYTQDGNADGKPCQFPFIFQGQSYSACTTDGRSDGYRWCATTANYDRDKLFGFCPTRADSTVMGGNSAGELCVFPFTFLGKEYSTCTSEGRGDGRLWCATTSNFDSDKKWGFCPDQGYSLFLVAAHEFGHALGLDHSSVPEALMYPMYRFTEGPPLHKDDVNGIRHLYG

In the case of `COc1ccc(S(=O)(=O)N(CC(=O)NO)CC(C)C)cc1` [NNGH, N-isobutyl-N-(4-methoxyphenylsulfonyl)glycyl hydroxamic, reference compound], the concentration for half-maximal inhibition (IC50) turned out to be 7.4 ± 0.2 nM.

Usually IC50 stands for the concentration needed to halve the response being measured.

(Values after article PMC10753699, “Synthesis of Some New 1,3,4-Oxadiazole Derivatives and Evaluation of Their Anticancer Activity” (ACS Omega, 2023).)
